# Results reported in PubChem BioAssay (NCI).
# Several values for one entry are separate records, joined by “and”; a condition that tells them apart may be missing. Equal entries are not always repeated.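 Five concentrations, 48 hours, 96-well plates. GI50 is the concentration that inhibits growth by half. The concentration for full growth arrest is given as TGI.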
# Legend:
# Assay in all cases: NCI-60 cell line screen, 48 h
# [1] = test system: SK-MEL-2 melanoma
# [2] = test system: COLO 205 colon
# [3] = test system: HL-60(TB) leukemia
# [4] = test system: CCRF-CEM leukemia
# [5] = test system: SK-OV-3 ovarian
# [6] = test system: HT29 colon
# [7] = test system: NCI-H226 lung
# [8] = test system: NCI-H23 lung
# [9] = test system: A549 NSCLC
# [10] = test system: HOP-92 NSCLC
Compound,TGI [1] [µM],TGI [2],TGI [3],TGI [4] [µM],TGI [5],TGI [6],TGI [7],TGI [8] [µM],TGI [9],GI50 [1],GI50 [2],GI50 [3] [µM],GI50 [4] [µM],GI50 [5] [µM],GI50 [6],GI50 [7] [µM],GI50 [8] [µM],GI50 [9],TGI [10],GI50 [10] [µM]
CCCC(=O)Nc1cc([N+](=O)[O-])c([N+](=O)[O-])cc1OC,41.6,30.9 µM,39 µM,51.4,26.8 µM,29.3 µM,51.2 µM,34.4,29.8 µM,–,–,–,–,–,–,–,–,–,–,–
CC(C)(C)c1cn2cccc(C(=O)N3CCN(CC(=O)Nc4ccc(Cl)cc4C(=O)c4ccccc4Cl)CC3)c2n1,33.6,43.6 µM,> 100 µM,13.7,> 100 µM,12.1 µM,37 µM,> 100,23.3 µM,5 µM,6.49 µM,> 100,3.39,27.5,3.33 µM,11.3,18.8,2.64 µM,–,–
Cc1ccc(S(=O)(=O)N/N=C/c2oc(-c3ccccc3Cl)c(-c3ccccc3Cl)c2[N+](=O)[O-])cc1,76.9,> 100 µM,39.9 µM,> 100,> 100 µM,> 100 µM,–,29.3,> 100 µM,–,–,–,–,–,–,–,–,–,55 µM,–
O=C(Nc1ccc([N+](=O)[O-])cc1C(=O)O)c1ccc([N+](=O)[O-])cc1,92.2,–,56.7 µM,26.9,> 100 µM,> 100 µM,91.6 µM,–,> 100 µM,–,–,–,–,–,–,–,–,–,36.6 µM,–
CO/N=C(\COc1ccc2c(c1)oc(=O)c1cc(OC)ccc12)c1ccc(F)cc1,72.8,> 100 µM,–,> 100,> 100 µM,66.8 µM,> 100 µM,> 100,94.8 µM,23.1 µM,59.6 µM,–,47.5,48.5,16.7 µM,38.1,37.6,26.3 µM,37.4 µM,14.4
Cn1cnc([N+](=O)[O-])c1SC1=NCCS1,> 100,> 100 µM,–,> 100,> 100 µM,> 100 µM,> 100 µM,> 100,> 100 µM,–,–,–,–,–,–,–,–,–,> 100 µM,–
COc1ccc2cc3[n+](cc2c1OC)CCc1cc2c(cc1-3)OCO2,–,33.3 µM [middle of 5 runs],–,–,> 100 µM and 194 µM,> 100 µM and > 92.7 µM and 87.6 µM,> 100 µM and 94.9 µM and 67.5 µM,–,> 325 µM,11.4 µM and 17.5 µM,7.46 µM [middle of 5 runs],–,9.29,38,23.7 µM,–,6.34,–,–,8.54
COC(=O)c1oc2c(O)c(OC)c(Br)cc2c1C,> 100,48.3 µM,–,67.6,–,30.4 µM,50.2 µM,–,74.1 µM,56.2 µM,22.5 µM,–,25,–,15.7 µM,29,–,25 µM,–,–
COc1ccc(NC(=O)COC(=O)c2cccc3c(=O)c4ccccc4[nH]c23)cc1,–,33.3 µM,25.8 µM,28,67.4 µM,29.5 µM,44.6 µM,32,53.2 µM,–,–,–,–,–,–,–,–,–,58.9 µM,–
COCOCc1cc(OCc2ccccc2)c(OC)cc1Br,> 100,> 100 µM,–,> 100,–,> 100 µM,–,> 100,> 100 µM,–,–,–,–,–,–,–,–,–,> 100 µM,–
CCOCC(=O)N[C@H]1CCc2cc(OC(=O)COCC)c(OC)c(OC)c2-c2ccc(SC)c(=O)cc21,–,0.054 µM,0.0313 µM and 0.0326 µM,–,–,> 100 µM,0.0917 µM and 0.0893 µM,–,–,> 100 µM,–,–,0.0127,0.0558,–,0.0264,0.0337,–,0.08 µM,–
COc1cc(C2CC(c3ccc(Nc4ccnc5cc(Cl)ccc45)cc3)=NN2C=O)cc(OC)c1OC (stereo not drawn),–,70.4 µM,7.4 µM,69.4,10.9 µM,7.17 µM,> 100 µM,> 100,> 100 µM,–,3.73 µM,2.53,1.82,3.36,2.83 µM,34.5,20.4,6.9 µM,5.59 µM,1.83
Cc1nc(N)sc1N=Nc1cc(Cl)c([N+](=O)[O-])cc1Cl,60,> 100 µM,57.7 µM,35,> 100 µM,28.7 µM,44.4 µM,–,31.5 µM,–,–,–,–,–,–,–,–,–,–,–
O=C1Nc2ccccc2/C1=C/c1cn(C(=O)c2c(Cl)cccc2Cl)c2ccccc12,–,22.2 µM,11 µM,15.6,56.5 µM,14.9 µM,27 µM,17.3,17.6 µM,–,7.52 µM,2.46,0.337,8.35,3.92 µM,7.48,4.08,3.23 µM,6.33 µM,1.54
CC(=O)c1c(O)ccc2c(C)c(C(=O)O)oc12,–,> 100 µM,–,> 100,–,> 100 µM,12.2 µM,> 100,> 100 µM,–,> 100 µM,–,> 100,–,> 100 µM,0.0188,> 100,> 100 µM,> 100 µM,> 100
O[C@@H]1CCCN1Cc1cc2cc3c(cc2c2cc(OCc4ccccc4)ccc12)OCO3,4.79,3.46 µM,4.13 µM,14.4,25.7 µM,5.09 µM,37.7 µM,–,14.8 µM,2.23 µM,1.7 µM,1.94,4.35,12.2,1.94 µM,15.7,–,3.69 µM,5.36 µM,1.53
Oc1ccccc1Nc1nc2ccccc2c2occc12,31,26 µM,–,–,25.2 µM,–,–,17.5,27.5 µM,14.1 µM,13.3 µM,–,–,11.1,–,–,4.48,14.5 µM,19.5 µM,5.73
N#CCC12CC=CCC1=C(O)C(=O)c1ccc(O)cc12 (stereo not drawn),> 100,> 100 µM,> 100 µM,> 100,> 100 µM,> 100 µM,> 100 µM,> 100,> 100 µM,–,–,–,–,–,–,–,–,–,–,–
Cc1cc(Cl)ccc1NC(=O)CC1SC(N)=NC1=O (stereo not drawn),> 100,> 100 µM,> 100 µM,> 100,> 100 µM,> 100 µM,> 100 µM,> 100,> 100 µM,–,–,–,–,–,–,–,–,–,–,–

Compound,TGI [1] [µM],TGI [2],TGI [3],TGI [4] [µM],TGI [5],TGI [6],TGI [7],TGI [8] [µM],TGI [9],GI50 [1],GI50 [2],GI50 [3] [µM],GI50 [4] [µM],GI50 [5] [µM],GI50 [6],GI50 [7] [µM],GI50 [8] [µM],GI50 [9],TGI [10],GI50 [10] [µM]
Cc1ccc(NC(=O)COC(=O)c2cccc3c(=O)c4ccccc4[nH]c23)cc1,–,77.9 µM,> 100 µM,–,92 µM,> 100 µM,96.7 µM,74.3,> 100 µM,–,–,–,–,–,–,–,–,–,> 100 µM,–
O=C1CSC(=S)N1Cc1cccnc1,16.5,21.1 µM,49 µM,86.2,> 100 µM,11.9 µM,> 100 µM,48,58.9 µM,4.21 µM,5.59 µM,7.27,4.37,35.8,3.9 µM,42.3,15.1,23.9 µM,–,–
COc1ccc(N(C)c2nc(Cl)nc3ccn(C)c23)cc1,–,< 0.01 µM,< 0.01 µM,> 100,> 100 µM,0.12 µM,> 100 µM,> 100,> 100 µM,–,< 0.01 µM,< 0.01,< 0.01,< 0.01,< 0.01 µM,> 100,< 0.01,< 0.01 µM,67.5 µM,1.79
Cc1[nH]n(-c2ccc(S(=O)(=O)O)cc2)c(=O)c1N=Nc1ccccc1,> 100,> 100 µM,–,–,> 100 µM,> 100 µM,–,> 100,> 100 µM,–,–,–,–,–,–,–,–,–,> 100 µM,–
c1ccc2c(Nc3ccc(Oc4ccc(Nc5c6ccccc6nc6ccccc56)cc4)cc3)c3ccccc3nc2c1,3.78,3.65 µM and 2.45 µM,–,0.719,4.21 µM,0.569 µM and 0.496 µM,3.81 µM,0.596,0.792 µM and 0.54 µM,3.25 µM,1.52 µM,–,0.217,–,0.237 µM and 0.212 µM,–,–,0.265 µM and 0.227 µM,1.5 µM and 4.69 µM,0.285
Oc1ccc2ccccc2c1C(c1ccc(Cl)cc1)c1c(O)ccc2ccccc12,6.71,4.49 µM,4.91 µM,7.46,19.9 µM,9.78 µM,–,19.1,10.8 µM,–,–,–,–,–,–,–,–,–,4.89 µM,–
CC1C=CC(C)C2(O)C(=O)NC(O)C12 (stereo not drawn),> 100,> 100 µM,> 100 µM,> 100,> 100 µM,–,> 100 µM,–,> 100 µM,–,–,–,–,–,–,–,–,–,–,–
N#CCCN(CCC#N)c1ccc(/C=N\c2nc(-c3ccccc3)cs2)cc1,> 100,> 100 µM,> 100 µM,–,> 100 µM,> 100 µM,> 100 µM,> 100,> 100 µM,–,–,–,–,–,–,–,–,–,> 100 µM,–
Cc1ccc(/C=C/C(=O)c2ccc(N)cc2)c(C)c1,28.4,6.07 µM,11.4 µM,–,31.3 µM,–,7.25 µM,5.21,37.5 µM,14 µM,2.43 µM,2.89,–,16.5,–,2.8,2.19,17.6 µM,4.43 µM,1.96
CCCCCCCCCCCCSC(=NC)NC,–,–,4.41 µM,9.97,19 µM,9.33 µM,–,4.71,4.76 µM,–,–,1.86,2.63,4.26,2.06 µM,–,2.2,2.12 µM,5.49 µM,1.39
CCN(CC)CCC(=O)N1CCc2c([nH]c3ccccc23)C1c1cccnc1 (stereo not drawn),–,–,> 100 µM,> 100,> 100 µM,> 100 µM,–,> 100,> 100 µM,–,–,–,–,–,–,–,–,–,> 100 µM,–
C[N+](C)(C)Cc1c(CC#N)[nH]c2ccccc12,> 100,> 100 µM,> 100 µM,> 100,–,> 100 µM,> 100 µM,> 100,> 100 µM,–,–,–,–,–,–,–,–,–,–,–
Cn1c(=O)c2[nH]c(C3CC(=O)CC(c4nc5c([nH]4)c(=O)n(C)c(=O)n5C)N3)nc2n(C)c1=O (stereo not drawn),> 100,> 100 µM,> 100 µM,> 100,> 100 µM,> 100 µM,> 100 µM,> 100,> 100 µM,–,–,–,–,–,–,–,–,–,–,–
CN1C(=O)c2cc([N+](=O)[O-])ccc2[C@H]2C(=O)c3cc4c(cc3[C@H]21)OCO4,> 45.8,> 61.2 µM,> 100 µM,–,> 100 µM,> 43.2 µM,–,0.796,1.88 µM,1.91 µM,0.225 µM,0.215,–,0.588,0.179 µM,–,0.21,0.115 µM,–,1.49
CCOC(=O)N[C@H]1CCc2cc(O)c(OC)c(OC)c2-c2ccc(SC)c(=O)cc21,0.173,1.22 µM,–,> 13.9,> 8.57 µM,7.22 µM,1.25 µM,9.95,> 100 µM,–,–,–,–,–,–,–,–,–,0.0786 µM,–
COc1cc(C(=O)/C=C/c2c(-c3ccc(F)cc3)nc3ncccn23)cc(OC)c1OC,6.97,–,> 100 µM,> 100,6.7 µM,6.25 µM,18.9 µM,5.79,> 100 µM,2.38 µM,–,3.33,4.05,2.64,2.52 µM,3.08,1.58,3.34 µM,92.9 µM,1.77
Cn1cnc([N+](=O)[O-])c1Sc1nc2cccnc2s1,–,22.7 µM,–,–,> 100 µM,63.7 µM,36.5 µM,–,> 100 µM,–,–,–,–,–,–,–,–,–,33.9 µM,–
c1ccc2c(-c3nc4ccccc4[nH]3)cccc2c1,8.68,11.8 µM,14.8 µM,7.81,27.3 µM,11.8 µM,–,> 100,> 100 µM,2.15 µM,3.48 µM,2.78,2.54,4.04,2.68 µM,–,4.2,4.36 µM,38.2 µM,4.27
